Results published in US11161856B2 (H. Lundbeck A/S, priority 2017, dated 2021).

How the values were obtained:
Assay type in all cases: biochemical
MAGL = molecular target: T1, MAGL (Homo sapiens, UniProt Q99685); experiment: In vitro competitive activity-based protein profiling (FP-Rh or HT-01 probe, gel-based); design: IC50 MGLL PC3 (Human, μM) / IC50 MGLL PFC (Human, μM): scale not given here; details: for % Inh MGLL PFC (Human, μM): prefrontal cortex (PFC) proteome; for % Inh MGLL PFC (Human, μM) / % Inh MGLL PC3 (Human, μM): concentration not given (μM); for IC50 MGLL PC3 (Human, μM) / % Inh MGLL PC3 (Human, μM) / IC50: PC3 cell proteome; for IC50: read-out: IC50 MGLL PC3 (Human)
T1 construct: Proteomes (human prefrontal cortex or cell membrane fractions); from tissue
T1 sequence (Q99685 1-303): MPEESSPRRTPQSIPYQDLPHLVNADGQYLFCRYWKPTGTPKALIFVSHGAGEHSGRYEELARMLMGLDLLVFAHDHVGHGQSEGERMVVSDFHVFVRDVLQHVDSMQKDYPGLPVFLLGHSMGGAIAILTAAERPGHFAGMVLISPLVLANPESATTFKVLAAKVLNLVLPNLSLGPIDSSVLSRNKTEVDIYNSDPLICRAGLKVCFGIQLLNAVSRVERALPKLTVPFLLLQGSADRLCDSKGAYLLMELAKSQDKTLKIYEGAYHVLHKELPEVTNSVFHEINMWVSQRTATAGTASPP
Method: (§1) In Vitro Competitive Activity-Based Protein Profiling.
(§2) Proteomes (human prefrontal cortex or cell membrane fractions) (50 μL, 1.0 mg/mL total protein concentration) were preincubated with varying concentrations of inhibitors at 37° C. After 30 min, FP-Rh or HT-01 (1.0 μL, 50 μM in DMSO) was added and the mixture was incubated for another 30 min at room temperature. Reactions were quenched with SDS loading buffer (15 μL-4×) and run on SDS-PAGE.

MGLL = molecular target: T2, MGLL (Mus musculus, UniProt O35678); experiment: In vitro competitive activity-based protein profiling, mouse brain proteome (MGLL); details: concentration not given (μM)
T2 construct: Brain; from tissue; host or cells: mouse brain proteome
T2 sequence (O35678 1-303): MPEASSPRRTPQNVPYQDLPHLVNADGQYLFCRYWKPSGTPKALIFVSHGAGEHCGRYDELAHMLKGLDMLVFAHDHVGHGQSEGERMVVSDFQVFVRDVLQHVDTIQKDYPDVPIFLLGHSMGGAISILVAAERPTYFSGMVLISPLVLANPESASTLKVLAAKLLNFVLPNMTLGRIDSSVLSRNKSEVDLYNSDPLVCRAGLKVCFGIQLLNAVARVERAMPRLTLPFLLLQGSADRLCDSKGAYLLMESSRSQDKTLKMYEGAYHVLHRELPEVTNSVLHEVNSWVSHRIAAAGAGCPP

ABHD6 = molecular target: T3, ABHD6 (Mus musculus, UniProt Q8R2Y0); experiment: In vitro competitive activity-based protein profiling, mouse brain proteome (ABHD6); details: mouse brain proteome; concentration not given (μM)
T3 construct: Brain; from tissue; host or cells: mouse brain proteome
T3 sequence (Q8R2Y0 1-336): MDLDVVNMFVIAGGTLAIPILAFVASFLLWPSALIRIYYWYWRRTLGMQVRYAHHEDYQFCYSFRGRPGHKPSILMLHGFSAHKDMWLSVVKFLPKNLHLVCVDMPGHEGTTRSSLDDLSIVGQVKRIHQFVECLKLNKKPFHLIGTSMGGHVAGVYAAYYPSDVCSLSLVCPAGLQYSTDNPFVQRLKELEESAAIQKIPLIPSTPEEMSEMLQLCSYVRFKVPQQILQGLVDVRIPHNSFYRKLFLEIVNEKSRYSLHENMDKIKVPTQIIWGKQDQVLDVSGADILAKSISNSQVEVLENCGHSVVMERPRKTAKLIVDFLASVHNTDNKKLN
Method: [The source words this procedure for another target and reports this target under the same test.] as §1, §2

% Inh MGLL PFC (Human, μM) (MAGL)	% Inh MGLL Brain (Mouse, μM) (MGLL)	% Inh ABHD6 Brain (Mouse, μM) (ABHD6)	IC50 MGLL PC3 (Human, μM) (MAGL)	% Inh MGLL PC3 (Human, μM) (MAGL)	IC50 (MAGL)	SMILES
### (### is ≥75%)	## (## is between 25 and 75%)	### (### is ≥75%)	–	–	–	O=C(O)c1ccc(CN2CC3(CCN(C(=O)OC(C(F)(F)F)C(F)(F)F)CC3)C2)cc1C(F)(F)F [Example 131, 4-((7-(((1,1,1,3,3,3-Hexafluoropropan-2-yl)oxy)carbonyl)-2,7-diazaspiro[3,5]nonan-2-yl)methyl)-2-(trifluoromethyl)benzoic acid]
### (### is ≥75%)	### (### is ≥75%)	### (### is ≥75%)	–	–	–	O=C(O)C1CCN(c2cc(CN3CC4(CCN(C(=O)OC(C(F)(F)F)C(F)(F)F)CC4)C3)cc(C(F)(F)F)c2)CC1 [Example 99, 1-(3-((7-(((1,1,1,3,3,3-Hexafluoropropan-2-yl)oxy)carbonyl)-2,7-diazaspiro[3.5]nonan-2-yl)methyl)-5-(trifluoromethyl)phenyl)piperi-dine-4-carboxylic acid]
–	### (### is ≥75%)	### (### is ≥75%)	–	### (### is ≥75%)	–	CC(C)(C#Cc1cc(CN2CCCC23CCN(C(=O)OC(C(F)(F)F)C(F)(F)F)CC3)cc(C(F)(F)F)c1)C(=O)O [Example 140, 4-{3-[(8-{[(1,1,1,3,3,3-Hexafluoropropan-2-yl)oxy]carbonyl}-1,8-diazaspiro[4.5]decan-1-yl)methyl]-5-(trifluoromethyl)phenyl}-2,2-dimethylbut-3-ynoic acid]
–	### (### is ≥75%)	# (# is ≤25%)	–	### (### is ≥75%)	–	CN(Cc1cccc(F)c1C1(C(=O)O)CCCC1)C1(C)CCN(C(=O)OC(C(F)(F)F)C(F)(F)F)CC1 [Example 144, l-(2-Fluoro-6-{[(1-{[(1.1,1,3,3,3-hexafluoropropan-2-yl)oxy]carbonyl}-4-methylpiperidin-4-yl)(methyl)ainino]methyl}phenyl)cyclopentane-1-carboxylic acid]
–	### (### is ≥75%)	# (# is ≤25%)	* * *	### (### is ≥75%)	–	CC(C)(C#Cc1cc(C(F)(F)F)ccc1CN1CCCC12CCN(C(=O)OC(C(F)(F)F)C(F)(F)F)CC2)C(=O)O [Example 5, 4-(2-((8-(((1,1,1,3,3,3-Hexafluoropropan-2-yl)oxy)carbonyl)-1,8-diazaspiro[4.5]decan-1-yl)methyl)-5-(trifluoromethyl)phenyl)-2,2-dimethylbut-3-ynoic acid]
–	### (### is ≥75%)	# (# is ≤25%)	–	### (### is ≥75%)	< 100 nM	CN(Cc1ccc(C(F)(F)F)cc1N1CCC(N2CCC[C@H]2C(=O)O)CC1)C1(C)CCN(C(=O)OC(C(F)(F)F)C(F)(F)F)CC1 [Example 163, (1-(2-(((1-(((1,1,1,3,3,3-Hexafluoropropan-2-yl)oxy)carbonyl)-4-methylpiperidin-4-yl)(methyl)amino)methyl)-5-(trifluoromethyl)phenyl)piperidin-4-yl)-L-proline]

Continued, compound first:

SMILES	% Inh MGLL PFC (Human, μM) (MAGL)	% Inh MGLL Brain (Mouse, μM) (MGLL)	% Inh ABHD6 Brain (Mouse, μM) (ABHD6)	IC50 MGLL PC3 (Human, μM) (MAGL)	% Inh MGLL PC3 (Human, μM) (MAGL)	IC50 (MAGL)
O=C(O)CN1CC2CC1CN2c1cc(CN2CCC3(CCN(C(=O)OC(C(F)(F)F)C(F)(F)F)CC3)C2)cc(C(F)(F)F)c1 (stereo not drawn) [Example 125, 2-(5-{3-[(8-{[(1,1,1,3,3,3-Hexafluoropropan-2-yl)oxy]carbonvl}-2,8-diazaspiro[4.5]decan-2-yl)methyl]-5-(trifluoromethyl)phenyl}-2,5-diazabicyclo[2.2.1]heptan-2-yl)acetic acid]	### (### is ≥75%)	### (### is ≥75%)	### (### is ≥75%)	–	–	–
O=C(OC(C(F)(F)F)C(F)(F)F)N1CCC2(CCCN2Cc2ccc(C(F)(F)F)cc2C2(C(=O)O)CCCC2)CC1 [Example 7, 1-(2-((8-(((1,1,1,3,3,3-hexafluoropropan-2-yl)oxy)carbonyl)-1,8-diazaspiro[4.5]decan-1-yl)methyl)-5-(trifluoromethyl)phenyl)cyclopentane-1-carboxylic acid]	### (### is ≥75%)	### (### is ≥75%)	# (# is ≤25%)	* * *	–	–
CN(Cc1ccc(C(F)(F)F)cc1-c1nnn[nH]1)C1(C)CCN(C(=O)OC(C(F)(F)F)C(F)(F)F)CC1 [Example 24, 1,1,1,3,3,3-Hexafluoropropan-2-yl 4-((2-(1H-tetrazol-5-yl)-4-(trifluoromethyl)benzyl)(methyl)amino)-4-methylpiperidine-1-carboxylate]	### (### is ≥75%)	### (### is ≥75%)	## (## is between 25 and 75%)	* * *	–	–
CN(Cc1ccc(C(F)(F)F)cc1N1CCC(N2CCC[C@H]2C(=O)O)CC1)C1(C)CCN(C(=O)OC(C(F)(F)F)C(F)(F)F)CC1 [Example 161, (1-(2-(((1-(((1,1,1,3,3,3-Hexafluoropropan-2-yl)oxy)carbonyl)-4-methylpiperidin-4-yl)(methyl)ainino)methyl)-5-(trifluoromethyl)phenyl)piperidin-4-yl)proline]	–	### (### is ≥75%)	### (### is ≥75%)	–	### (### is ≥75%)	< 100 nM
O=C(O)C1CCN(c2ccc(CN3CCC4(CC3)CCN(C(=O)OC(C(F)(F)F)C(F)(F)F)C4)cc2C(F)(F)F)CC1 [Example 219, l-(4-((2-(((1,1,1,3,3,3-Hexafluoropropan-2-yl)oxy)carbonyl)-2,8-diazaspiro[4.5]decan-8-yl)methyl)-2-(trifluoromethyl)phenyl) piperidine-4-carboxylic acid]	### (### is ≥75%)	## (## is between 25 and 75%)	### (### is ≥75%)	–	–	–
CC1(C(=O)O)CN(c2cc(C(F)(F)F)ccc2CN2CC3(CCN(C(=O)OC(C(F)(F)F)C(F)(F)F)CC3)C2)CCO1 (stereo not drawn) [Example 130, 4-(2-((7-(((1,1,1,3,3,3-Hexafluoropropan-2-yl)oxy)carbonyl)-2,7-diazaspiro[3.5]nonan-2-yl)methyl)-5-(trifluoromethyl)phenyl)-2-methylmorpholine-2-carboxylic acid]	### (### is ≥75%)	### (### is ≥75%)	# (# is ≤25%)	–	–	–
O=C(O)CN1CCC2(CC1)CCN(c1cc(C(F)(F)F)ccc1CN1CCCC13CCN(C(=O)OC(C(F)(F)F)C(F)(F)F)CC3)C2 [Example 154, 2-(2-(2-((8-(((1,1,1,3,3,3-Hexafluoropropan-2-yl)oxy)carbonyl)-1,8-diazaspiro[4.5]decan-1-yl)methyl)-5-(trifluoromethyl)phenyl)-2,1-diazaspiro[4.5]decan-8-yl)acetic acid]	### (### is ≥75%)	### (### is ≥75%)	# (# is ≤25%)	–	–	–
O=C(OC(C(F)(F)F)C(F)(F)F)N1CCC2(CC1)CCN(C(=O)c1ccc(C(F)(F)F)cc1Cl)C2 [Example 119, 1,1,1,3,3,3-Hexafluoropropan-2-yl 2-(2-chloro-4-(trifluoromethyl)benzoyl)-2,8-diazaspiro[4.5]decane-8-carboxylate]	### (### is ≥75%)	### (### is ≥75%)	### (### is ≥75%)	–	–	–
CC1(OCc2cc(CN3CCC(C(=O)O)CC3)cc(C(F)(F)F)c2)CCN(C(=O)OC(C(F)(F)F)C(F)(F)F)CC1 [Example 25, 1-(3-(((1-(((1,1,1,3,3,3-Hexafluoropropan-2-yl)oxy)carbonyl)-4-methylpiperidin-4-yl)oxy)methyl)-5-(trifluoromethyl)benzyl)piperidine-4-carboxylic acid]	–	### (### is ≥75%)	### (### is ≥75%)	* * *	### (### is ≥75%)	–
